In one assay the target is T1, 5-Lipoxygenase (Rattus norvegicus, UniProt P12527).
T1 construct: endogenous in cells; host or cells: rat neutrophils (PMN)
T1 sequence (P12527 1-673): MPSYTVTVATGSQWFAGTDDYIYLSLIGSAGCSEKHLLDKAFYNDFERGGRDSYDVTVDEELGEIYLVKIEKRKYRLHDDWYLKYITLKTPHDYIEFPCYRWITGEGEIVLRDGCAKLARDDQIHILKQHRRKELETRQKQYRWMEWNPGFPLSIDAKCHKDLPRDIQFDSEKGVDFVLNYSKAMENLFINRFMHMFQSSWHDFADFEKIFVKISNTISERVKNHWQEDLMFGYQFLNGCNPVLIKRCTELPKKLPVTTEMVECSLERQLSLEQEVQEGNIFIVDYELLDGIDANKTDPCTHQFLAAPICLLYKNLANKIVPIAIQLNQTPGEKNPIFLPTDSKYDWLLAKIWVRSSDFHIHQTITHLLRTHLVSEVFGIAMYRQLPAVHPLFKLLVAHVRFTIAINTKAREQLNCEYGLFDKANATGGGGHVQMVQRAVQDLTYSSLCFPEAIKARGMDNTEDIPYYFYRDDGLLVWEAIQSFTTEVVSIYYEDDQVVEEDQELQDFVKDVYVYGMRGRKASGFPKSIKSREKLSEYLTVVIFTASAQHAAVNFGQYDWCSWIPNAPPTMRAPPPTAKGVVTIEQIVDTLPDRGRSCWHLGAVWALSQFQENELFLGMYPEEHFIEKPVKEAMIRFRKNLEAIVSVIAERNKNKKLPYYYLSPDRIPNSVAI
Nature of the assay: Inhibition of 5-Lipoxygenase, rat PMN (Protocol 1). The assay is classed as cell-based. As to conditions: rat neutrophils, 3 minutes at 30° C., 5-HETE formation; for IC50: [14C]-arachidonic acid and Calcium Ionophore A23187, read-out: Lox, Rat PMN (I50); for Inhibition of 5-Lipoxygenase, Lox, Rat PMN (given as %): concentration not given. The method, then: Protocol 1 describes an assay to detect inhibitors of the lipoxygenase pathway. Such inhibitors are believed to be capable of modulating the biosynthesis of the leukotrienes, a property believed to be useful in treating asthma and inflammatory disease states. A suspension of rat neutrophils in buffer is incubated for 3 minutes at 30° C. with [^14 C]-arachidonic acid (AA) and Calcium Ionophore A23187. Citric acid (2M) is used to quench the reaction. […] The organic layer is washed with dilute acid and an aliquot is transferred to glass tubes and dried. […] The 5-HETE spots are visulaized with iodine, cut out and placed in scintillation vials for counting. After adjusting for the extraction efficiency, the amount (pmole) of [^14 C]-5-HETE in each of the tubes is quantitated. The net pmoles of 5-HETE are obtained by subtracting the pmoles of 5-HETE in the tubes containing buffer alone (blank) from the pmoles of 5-HETE in the tubes containing buffer and cells (control).

Another assay deals with T2, Phospholipase A2 (PLA2) (Rattus norvegicus, UniProt P14423).
T2 construct: The PLA2 employed in this screen is obtained by aggregation of purified rat platelets; from tissue; host or cells: purified rat platelets, enzyme obtained by aggregation
T2 sequence (P14423 22-146): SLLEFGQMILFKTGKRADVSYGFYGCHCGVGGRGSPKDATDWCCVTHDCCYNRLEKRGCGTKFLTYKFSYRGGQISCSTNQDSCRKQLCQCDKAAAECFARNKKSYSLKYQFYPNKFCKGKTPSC
Kind of assay: In Vitro Assay for Inhibitors of Phospholipase A2 (PLA2), rat platelets (Protocol II). The assay is classed as biochemical. From the text: An assay has been developed to test the ability of the invented compounds on the activity of the phospholipases. The following protocol describes a means for testing the inhibitory effect of these compounds on Phospholipase A2 (PLA2).
In Vitro Assay for Inhibitors of Phospholipase A2 Assayed at pH 7.0 (PLA2)
The PLA2 employed in this screen is obtained by aggregation of purified rat platelets. In the enzyme assay phosphatidylcholine having ^14 C-labeled palmitate residues at R1 and R2 is employed as substrate. PLA2 acts by cleaving the R2 fatty acid ester bond yielding free fatty acid and lysophosphatidylcholine as follows: [drawing 15]
Following completion of the reaction, the assay medium is acidified and extracted with hexane, which takes up unreacted substrate and free fatty acid product. The hexane extract is passed over a short silica column which retains 99% of the phosphatidylcholine. The ^14 C-labeled palmitic acid is not retained (90% recovery in eluate) and is collected directly in scintillation counting vials. The released palmitic acid is conveniently quantitated by liquid scintillation spectrometry.
The compounds were tested at 100 μM in a buffer containing 0.3 mM unlabeled phosphatidylcholine (PC), 20-30,000 cpm of ^14 C(CPC), […], 1 mM CaCl2 and 50 mM tris-HCl adjusted to pH 7.2 with 1N NaOH. […] The temperature of the buffer was maintained at a temperature of 37° C. The reaction was initiated by addition of the enzyme and it was terminated 30 minutes later by the addition of […] of 1N HCl.
Following acidification, the samples were extracted with 2 ml of 2-propanol and 2 ml of hexane, vortexed and allowed to stand until the phases separated. Free fatty acids (FFA) and some unreacted substrate were taken up in the isopropanol-saturated hexane. The hexane phase of the extraction mixture was transferred to a short silica gell column which retained reacted PC but not the FFA. The column effluent was collected directly in scintillation vials. The columns were washed once with an additional 2 ml of hexane. The radio labeled FFA were quantitated by liquid scintillation spectrometry.

Where [1] appears, read: rat platelets PLA2, phosphatidylcholine substrate, pH 7.2, 37° C., 30 minutes, read-out: PHOSPHOLIPASE A2 INHIBITION Activity (I50).

SMILES strings stand for the structures. Like-named read-outs stand apart in the source and are kept apart here.

We go through 7 molecules from US4595696A, “Polyene compounds useful in the treatment of allergic responses” (USV Pharmaceutical Corp., priority 1985, dated 1986).

What is called inhibition is the change of the read-out against control, counted positive when it falls. The low end stands for a weak effect, the high end for a strong effect.

On to `CC(=O)Nc1ccc(OC(=O)/C=C(C)/C=C/C=C(C)/C=C/C2=C(C)CCCC2(C)C)cc1` [Example 1, 4-Acetamidophenyl Retinoate], for which the IC50 on 5-Lipoxygenase and on Phospholipase A2 (PLA2) (setting [1]) was 56 µM each time.
With `CC(=O)Nc1cccc(OC(=O)/C=C(C)/C=C/C=C(C)/C=C/C2=C(C)CCCC2(C)C)c1` [Example 2, 3-Acetamidophenyl Retinoate], the values for the IC50 on 5-Lipoxygenase and on Phospholipase A2 (PLA2) (setting [1]) were 55 µM and 48 µM, respectively.
For `CC(=O)Nc1ccc(SC(=O)/C=C(C)/C=C/C=C(C)/C=C/C2=C(C)CCCC2(C)C)cc1` [Example 3, Retinoic Acid 4-Acetamidophenyl Thioester], the IC50 on 5-Lipoxygenase is 2.3 µM; on Phospholipase A2 (PLA2) (setting [1]), 34 µM.
`CC(=O)Nc1ccc(OC(=O)/C=C/C=C(C)/C=C/C=C(C)/C=C/C2=C(C)CCCC2(C)C)cc1` [Example 4, 4-Acetamidophenyl 5,9-dimethyl-11-(2,6,6-trimethyl-1-cyclohexen-1-yl)-2,4,6,8,10-undecapentaenoate] displayed an IC50 on Phospholipase A2 (PLA2) of 17 µM.
Consider `CCOC(=O)/C=C(C)/C=C/C=C(C)/C=C/c1c(C)cc(OC)c(C)c1C` [Ro 10 - 9359, reference compound], for which the “Inhibition of 5-Lipoxygenase, Lox, Rat PMN (given as %)” value on 5-Lipoxygenase is on record as 10 ± 17%.
Regarding `CCNC(=O)/C=C(C)/C=C/C=C(C)/C=C/c1c(C)cc(OC)c(C)c1C` [Ro 11 - 1430, reference compound], on 5-Lipoxygenase, the “Inhibition of 5-Lipoxygenase, Lox, Rat PMN (given as %)” value is listed as -11 ± 19%.
As to `CC1=C(/C=C/C(C)=C/C=C/C(C)=C/C(=O)O)C(C)(C)CCC1` [all trans retinoic acid, reference compound], the IC50 on 5-Lipoxygenase came to 90 µM. On Phospholipase A2 (PLA2) (at 100 μM, rat platelets PLA2, pH 7.2, 37° C., 30 minutes), the inhibition at 100 µM is 32%.
